Where “and” joins values, the source holds several entries; their conditions need not be identical. Equal values may be shown once. Read-outs that look alike come from different tables or passages of the source.
Key:
Crystal screening (XRPD) = format: physicochemical; settings: 36 conditions
Procedure: Crystal screening for each further characterized pantothenamide was performed by a commercial service (Crystal Pharmatech Co., Ltd.) under 36 conditions using a variety of crystallization methods, including liquid vapor diffusion, slow evaporation, slurry conversion and salt/co-crystal formation and solvents. X-ray power diffraction (XRPD) patterns were collected by Bruker X-ray powder diffractometers.

[1] = Blood concentration and PK in infected NSG mice after single oral dose; format: in vivo, mouse
Procedure: The effect of pantothenamides on P. falciparum Pf3D7^0087/N9 [66] in vivo was assessed in female NSG mice (NODscidIL2Rγ^null) at the Swiss Tropical and Public Health Institute (Basel, Switzerland) as described previously (Supplementary Table 30)[15],[67]. Briefly, humanized mice were engrafted daily with human erythrocyte suspensions from days -11 to day 6. After 11 days (day 0), mice were injected intravenously with 3×10^7 infected RBCs in a volume of 0.1 ml. On day 4, groups of n = 2 mice were treated with a single dose pantothenamides or chloroquine (50 mg/kg) by oral gavage. The hematocrit of all dosed mice and an untreated control group (n = 4 mice) was determined by fluorescence-activated cell sorting and parasitemia was analyzed by microscopy on >10,000 RBCs as described before. Samples to quantify compound metabolites were collected and prepared at different time points (1, 2, 4, 6, and 24 h after treatment) for each mouse by mixing 20 µl of whole blood with 20 µl of Milli-Q, followed by immediate freezing of samples on dry ice. […] Serial dilutions were prepared in the same solvent to concentrations 50 times higher than the corresponding CAL and QC concentrations. The concentrations were calculated under consideration of purity and salt factor. The spiking of the CAL and QC sample were performed at room temperature. The eight calibration levels were 5.00, 10.0, 50.0, 100, 500, 1000, 3750, and 5000 ng/mL and three QC levels 15.0, 100, and 3750 ng/mL were analyzed in duplicate, together with the study samples.
For the sample precipitation, to an aliquot of 10 µL mouse blood/water (1/1) study sample, 20 µL of acetonitrile containing the internal standard MMV1542001 at a concentration of 100 ng/mL was added. After vortex mixing, the samples were centrifuged for 10 min at 50,000 g at 8 °C. Subsequently, an aliquot of 20 µL of the supernatant was transferred to an autosampler vial and an aliquot of 5 µL was injected onto the LC-MS/MS system.
The samples were handled by an autosampler CTC PAL (CTC Analytics AG, Zwingen, Switzerland) set at 8 °C. The chromatography column used was a YMC Hydrosphere C18, 2.1 × 33 mm, 3 µm (YMC Co. Ltd., Kyoto, Japan), kept at room temperature. The aqueous mobile phase consisted of water containing 0.1 % formic acid, whereas the organic mobile phase consisted of acetonitrile containing 0.1 % formic acid, pumped by HPLC pump from Agilent 1200 series (Agilent Technologies Inc, Santa Clara, CA, USA). The HPLC gradient was as follows: 95% phase A, 5% phase B for 0.20 min, followed by transition to 5% phase A, 95% phase B in 1 min, 2 min at these concentrations, and a subsequent increase to 95% phase A, 5% phase B in 0.05 min which is kept for the remaining 0.75 min.
The detection of MMV693183 was performed using a TSQ Access mass spectrometer (Thermo Fisher Scientific, San Jose, CA, USA) by selected reaction monitoring. The ion source was heated electrospray ionization, using a negative polarity. Following parameters were used: Voltage 2500 [V], Vaporizer temperature 350 [°C], Sheath gas 60 [au], Auxiliary gas 5 [au], Capillary temperature 350 [°C] and Collision gas pressure 1.0 [mTorr]. […] The transition used for the internal standard was: parent ion 325.030 m/z—daughter ion 195.000 m/z.
The concentration of the analyte was calculated using the internal standardization method. The area ratio of analyte to internal standard against the concentration of calibration samples was used for quantification. The acquisition and processing of data were performed using LCquan 2.5.6 and Xcalibur 2.0.7. Microsoft Office Excel 2007 Prof was used for calculations and statistical evaluation of data. […] The Lower Limit of Quantification was 5.00 ng/mL in […], whereas The Upper Limit of Quantification was 5000 ng/mL in mouse blood/water (1/1).

[2] = system: P. falciparum NF54-HGL gametocytes; experiment: Gametocyte viability assay (72 h, luminescence); format: cell-based, Plasmodium falciparum; settings: for gametocyte viability, dose-response: NF54-HGL
Procedure: Gametocyte viability assays on NF54-HGL parasites were performed using an adapted high-throughput protocol as previously described[15],[64]. In short, asexual blood-stage parasite cultures were set up at 1% parasitemia in a semi-automated shaker system at 5% hematocrit. From day four until day eight or nine, parasites were treated with 50 mM N-acetyl glucosamine to eliminate all asexual blood-stage parasites. Subsequently, gametocytes were isolated by a Percoll density gradient centrifugation. At day 11, gametocytes were seeded (5,000 per well) in 30 µl in white 384-well plates containing 30 µl of compounds diluted in medium (0.1% DMSO). After a 72-h incubation, 30 µl of ONE-Glo reagent (Promega) was added according to manufacturer’s protocol and luminescence was quantified using the BioTek Synergy 2 Plate reader. Values were normalized to DMSO- and epoxomicin or dihydroartemisinin-treated controls.

[3] = per replicate experiment, read-out: IC50, sexual blood stages

Compound	Crystalline (Crystal screening (XRPD))	AUC0-24h ([1]; 50 mg/kg p.o.)	Cmax ([1]; 50 mg/kg p.o.)	T1/2 ([1]; 50 mg/kg p.o.)	Tmax ([1]; 50 mg/kg p.o.)	concentration in blood ([1]; 1 h post treatment, per mouse)	concentration in blood ([1]; 2 h post treatment, per mouse)	concentration in blood ([1]; 4 h post treatment, per mouse)	concentration in blood ([1]; 6 h post treatment, per mouse)	concentration in blood ([1]; 24 h post treatment, per mouse)	Sexual blood stages viability, dose-response ([2]; Log concentration (M) -7.5)	Sexual blood stages viability, dose-response ([2]; Log concentration (M) -8)	Sexual blood stages viability, dose-response ([2]; Log concentration (M) -8.5)	Sexual blood stages viability, dose-response ([2]; Log concentration (M) -9)	Sexual blood stages viability, dose-response ([2]; Log concentration (M) -9.5)	Sexual blood stages viability, dose-response ([2]; Log concentration (M) -10)	IC50 [2, 3]	further results
C[C@@H](CNC(=O)[C@H](O)C(C)(C)CO)NC(=O)c1cc(F)c(F)cc1F [MMV693183]	Yes	33700 ng·h/mL	12900 ng/mL	2.49 h	1.50 h	6960 ng/mL and 16200 ng/mL	9660 ng/mL and 7300 ng/mL	2360 ng/mL and 1170 ng/mL	802 ng/mL and 376 ng/mL	10 ng/mL	36.75 and 49.45 and 51.8	69.2 and 83.95 and 95.65	82.4 and 91.1 and 100.8	98.1 and 92.5 and 103.2	107.25 and 92.05 and 100.45	92.05 and 87.2 and 94.15	17.8 nM and 36 nM and 36.8 nM	–
CC(C)(CO)[C@@H](O)C(=O)NCCNC(=O)c1cc(C#N)ccc1F [MMV976394]	No	10800 ng·h/mL	5810 ng/mL	2.95 h	1.00 h	6840 ng/mL and 4780 ng/mL	1230 ng/mL and 1500 ng/mL	450 ng/mL and 356 ng/mL	204 ng/mL and 214 ng/mL	10 ng/mL	108.15 and 96.65	91.85 and 97.6	92.6 and 88	87.75 and 103.75	90 and 115.4	90 and 95.6	–	Sexual blood stages viability, dose-response ([2]; Log concentration (M) -6): 82.2 and 80.4; Sexual blood stages viability, dose-response ([2]; Log concentration (M) -6.5): 89.6 and 82.4; Sexual blood stages viability, dose-response ([2]; Log concentration (M) -7): 87.4 and 85.95
C[C@@H](CNC(=O)[C@H](O)C(C)(C)CO)NC(=O)c1cccc(F)c1 (stereo in doubt) [MMV1542001]	No	11800 ng·h/mL	5150 ng/mL	2.80 h	1.00 h	4480 ng/mL and 5820 ng/mL	1520 ng/mL and 1620 ng/mL	492 ng/mL and 574 ng/mL	314 ng/mL and 340 ng/mL	10 ng/mL	–	–	–	60.65 and 74.3	76.05 and 100.7	85.65 and 89	1.98 nM and 9.93 nM	–
CC(CNC(=O)C(O)C(C)(C)CO)NC(=O)CCc1ccccc1F (stereo in doubt) [MMV689258]	Yes	6730 ng·h/mL	3780 ng/mL	3.26 h	1.00 h	3100 ng/mL and 4460 ng/mL	1090 ng/mL and 698 ng/mL	368 ng/mL and 236 ng/mL	91.8 ng/mL and 110 ng/mL	10 ng/mL	–	–	–	–	–	–	–	gametocyte viability, dose-response ([2]; Log concentration (M) -8): 82.05 and 46 and 45.3; gametocyte viability, dose-response ([2]; Log concentration (M) -8.5): 95.95 and 82.9 and 64.1; gametocyte viability, dose-response ([2]; Log concentration (M) -9): 97.75 and 94.05 and 92.15; gametocyte viability, dose-response ([2]; Log concentration (M) -9.5): 104.7 and 93.15 and 94.35; gametocyte viability, dose-response ([2]; Log concentration (M) -10): 106.25 and 112.55 and 90.95
C[C@@H](CNC(=O)[C@H](O)C(C)(C)CO)NC(=O)c1cccc(C#N)c1 (stereo in doubt) [MMV884962]	No	8650 ng·h/mL	3920 ng/mL	3.32 h	1.00 h	3920 ng/mL	1180 ng/mL and 1170 ng/mL	468 ng/mL and 370 ng/mL	222 ng/mL and 193 ng/mL	13 ng/mL and 10 ng/mL	–	–	–	92.55 and 54.1	110.8 and 104.4	97.15 and 70.3	5.95 nM and 2.17 nM	–
C[C@@H](CNC(=O)[C@H](O)C(C)(C)CO)NC(=O)c1cc(C#N)ccc1F [MMV693182]	Yes	–	–	–	–	4180 ng/mL	2200 ng/mL and 1000 ng/mL	866 ng/mL	266 ng/mL and 912 ng/mL	10 ng/mL and 22.4 ng/mL	49.3 and 51	81.9 and 78.35	96 and 103.7	97.2 and 103.7	95 and 105.75	95.6 and 117.9	21.4 nM	concentration at 1 h ([1]; female, NSG (NODscidIL2Rγnull), mouse, whole blood, oral, 50 mg/kg, 1 h post treatment, per mouse): 6360 ng/mL; concentration at 4 h ([1]; female, NSG (NODscidIL2Rγnull), mouse, whole blood, oral, 50 mg/kg, 4 h post treatment, per mouse): 552 ng/mL; half-life ([1]; female, NSG (NODscidIL2Rγnull), mouse, whole blood, po, 50 mg/kg p.o.): 3.19 h; AUC(0 - t) ([1]; female, NSG (NODscidIL2Rγnull), mouse, whole blood, po, 50 mg/kg p.o., read-out: AUC0-24h): 15100 ng·h/mL; Cmax ([1]; female, NSG (NODscidIL2Rγnull), mouse, whole blood, po, 50 mg/kg p.o., read-out: Cmax): 5270 ng/mL; Tmax ([1]; female, NSG (NODscidIL2Rγnull), mouse, whole blood, po, 50 mg/kg p.o., read-out: Tmax): 1 h; IC50 ([2]; Plasmodium falciparum, NF54, per replicate experiment, read-out: IC50, sexual blood stages): 32.9 nM; IC50 ([2]; Plasmodium falciparum, NF54, sexual viability assay, range of independent experiments, read-out: Gametocyte IC50 range (N)): 21.4 to 32.9 nM

From paper PMC9021288 (Nature Communications, 2022)
